In patent US12138256B2, “Treatment of cardiopulmonary disorders” (Bayer Aktiengesellschaft, priority 2021, dated 2024):
Several values for one entry are separate records, joined by “and”; a condition that tells them apart may be missing. Equal entries are not always repeated.

What was measured:
[1] = Protein binding via Transil assay, dog plasma; assay type: in vitro ADME; conditions: Dog Beagle plasma, Transil assay
Text: The distribution of a test substance between Transil® (phosphatidylcholine lipid bilayers immobilized on silica beads) and plasma is a characteristic feature of any pharmaceutical compound and is dependent on its extent of binding to plasma proteins. By comparing the distribution between Transil® and buffer with the distribution between Transil® and plasma of any species of interest, the unbound fraction in the plasma of the respective animal species can be calculated in vitro. The respective plasma and buffer concentrations were determined via a radioactivity analysis. A detailed description of the method and its validation was published by Schuhmacher et al. (2).

Caco-2 cells = assay: Caco-2 permeability test (C-5.1); assay type: in vitro ADME, human; conditions: 2 μM
[2] = test system: hypoxia induced PAP increase in conscious dogs; assay: Haemodynamics in conscious hypoxia challenged dogs (C-2.2); assay type: in vivo, dog; design: PAP, absolute values for each animal: unit: mmHg; conditions: for mPAP decrease during Hypoxia, each animal / mPAP decrease during Hypoxia, mean +/− SEM: n = 3
Procedure: Experiments were carried out in anesthetized Göttingen minipigs, anesthetized rats and conscious, telemetrically instrumented dogs. Acute pulmonary hypertension was induced for example by infusion of a thromboxane A2 analogon, by acute hypoxia treatment or hypoxia treatment over a number of weeks and/or by administration of monocrotaline. Test substances were applied via nebulization using the Nebutec® or Aeroneb® Pro nebulizer system, and/or by means of powder and/or solution applicators for experimental intratracheal administration (Liquid MicroSprayer®, Dry Powder Insufflator™, MicroSprayer®, Penn-Century Inc., Wyndmoor, PA, USA) or after solid nebulization inserted into the inspiration arm of the ventilation. Compounds were employed as solids or solutions depending on the molecular structure and the technical possibility depending on the experiment. The haemodynamic signals were recorded and evaluated by means of pressure transducers/amplifiers (Combitransducer B. Braun, Melsungen, Germany or CardioMEMS Inc., Atlanta, GA, USA) and Ponemah® or CardioMems® as data aquisition software. After long-term experiments (for example monocrotaline rat), it is also possible to carry out a histological evaluation.
We evaluated the lung-selectivity and duration of effects of comparative example 11 under conscious conditions, in another species, and under a more physiological stimulus for PAP increase. Dogs were exposed to hypoxia for 30 minutes to induce a hypoxia-mediated PAP increase and comparative example 11 (100 μg/kg nominal dose) was applied by inhalation 1, 5, 12, 16 and 24 hours before hypoxia.
The hypoxic dog model was also used to compare different drug candidates wrt duration of action under conscious conditions.

[3] = 100 μg/kg nominal dose inhaled, 1-2 h post inhalation
[4] = 100 μg/kg nominal dose inhaled, 5-6 h post inhalation
[5] = 100 μg/kg nominal dose inhaled, 12-13 h post inhalation
[6] = 100 μg/kg nominal dose inhaled, 16-17 h post inhalation
[7] = 100 μg/kg nominal dose inhaled, 24-25 h post inhalation

O=C(O)c1ccc(CCN(CCc2ccccc2OCc2ccc(-c3ccc(C(F)(F)F)cc3)cc2Cl)[C@H]2CCCc3nc(C(=O)O)ccc32)cc1 [comparative example 11, (5S)-5-{[2-(4-carboxyphenyl)ethyl][2-(2-{[3-chloro-4′-(trifluoromethyl)[biphenyl]-4-yl]methoxy}phenyl)ethyl]amino}-5,6,7,8-tetrahydroquinoline-2-carboxylic acid]
fraction unbound [1]: 0.00108 | efflux ratio (Caco-2 cells): does not show an efflux ratio | effects on HR ([2]; 100 μg/kg nominal dose inhaled): No effects on HR | PAP, absolute values for each animal ([2]; 100 μg/kg nominal dose inhaled 1 h before hypoxia, time 4 min): 10 and 13 and 8 | PAP, absolute values for each animal ([2]; 100 μg/kg nominal dose inhaled 1 h before hypoxia, time 6 min): 12 and 13 and 8 | PAP, absolute values for each animal ([2]; 100 μg/kg nominal dose inhaled 1 h before hypoxia, time 8 min): 10 and 12 and 9 | PAP, absolute values for each animal ([2]; 100 μg/kg nominal dose inhaled 16 h before hypoxia, time 22 min): 23 (2×) and 12 | PAP, absolute values for each animal ([2]; 100 μg/kg nominal dose inhaled 16 h before hypoxia, time 24 min): 21 and 27 and 14 | PAP, absolute values for each animal ([2]; 100 μg/kg nominal dose inhaled 16 h before hypoxia, time 26 min): 23 and 24 and 12 | PAP, absolute values for each animal ([2]; 100 μg/kg nominal dose inhaled 16 h before hypoxia, time 28 min): 21 and 25 and 15 | PAP, absolute values for each animal ([2]; 100 μg/kg nominal dose inhaled 16 h before hypoxia, time 30 min): 21 and 23 and 14 | PAP, absolute values for each animal ([2]; 100 μg/kg nominal dose inhaled 16 h before hypoxia, time 32 min): 18 and 26 and 16 | PAP, absolute values for each animal ([2]; 100 μg/kg nominal dose inhaled 16 h before hypoxia, time 34 min): 18 and 28 and 15 | PAP, absolute values for each animal ([2]; 100 μg/kg nominal dose inhaled 16 h before hypoxia, time 36 min): 17 and 25 and 18 | PAP, absolute values for each animal ([2]; 100 μg/kg nominal dose inhaled 16 h before hypoxia, time 38 min): 18 and 27 and 17 | PAP, absolute values for each animal ([2]; 100 μg/kg nominal dose inhaled 16 h before hypoxia, time 40 min): 17 (2×) and 28 | PAP, absolute values for each animal ([2]; 100 μg/kg nominal dose inhaled 16 h before hypoxia, time 42 min): 9 and 19 and 13 | PAP, absolute values for each animal ([2]; 100 μg/kg nominal dose inhaled 16 h before hypoxia, time 44 min): 7 and 18 and 9 | PAP, absolute values for each animal ([2]; 100 μg/kg nominal dose inhaled 16 h before hypoxia, time 46 min): 7 and 18 and 6 | PAP, absolute values for each animal ([2]; 100 μg/kg nominal dose inhaled 16 h before hypoxia, time 48 min): 6 and 16 and 9 | PAP, absolute values for each animal ([2]; 100 μg/kg nominal dose inhaled 16 h before hypoxia, time 50 min): 7 and 15 and 8 | PAP, absolute values for each animal ([2]; 100 μg/kg nominal dose inhaled 24 h before hypoxia, time 0 min): 10 and 15 (2×) | PAP, absolute values for each animal ([2]; 100 μg/kg nominal dose inhaled 24 h before hypoxia, time 2 min): 9 and 14 and 12 | PAP, absolute values for each animal ([2]; 100 μg/kg nominal dose inhaled 24 h before hypoxia, time 4 min): 8 and 14 and 10 | PAP, absolute values for each animal ([2]; 100 μg/kg nominal dose inhaled 24 h before hypoxia, time 6 min): 8 and 16 and 11 | PAP, absolute values for each animal ([2]; 100 μg/kg nominal dose inhaled 24 h before hypoxia, time 8 min): 8 and 14 and 9 | PAP, absolute values for each animal ([2]; 100 μg/kg nominal dose inhaled 24 h before hypoxia, time 10 min): 9 and 11 and 10 | PAP, absolute values for each animal ([2]; 100 μg/kg nominal dose inhaled 24 h before hypoxia, time 12 min): 20 (2×) and 15 | PAP, absolute values for each animal ([2]; 100 μg/kg nominal dose inhaled 24 h before hypoxia, time 14 min): 23 and 22 and 19 | PAP, absolute values for each animal ([2]; 100 μg/kg nominal dose inhaled 24 h before hypoxia, time 16 min): 27 and 24 and 22 | PAP, absolute values for each animal ([2]; 100 μg/kg nominal dose inhaled 24 h before hypoxia, time 18 min): 27 and 26 and 20 | PAP, absolute values for each animal ([2]; 100 μg/kg nominal dose inhaled 24 h before hypoxia, time 20 min): 29 (2×) and 23 | PAP, absolute values for each animal ([2]; 100 μg/kg nominal dose inhaled 24 h before hypoxia, time 22 min): 27 and 30 and 22 | PAP, absolute values for each animal ([2]; 100 μg/kg nominal dose inhaled 24 h before hypoxia, time 24 min): 26 and 28 and 22 | PAP, absolute values for each animal ([2]; 100 μg/kg nominal dose inhaled 24 h before hypoxia, time 26 min): 24 and 29 and 17 | PAP, absolute values for each animal ([2]; 100 μg/kg nominal dose inhaled 24 h before hypoxia, time 28 min): 26 and 29 and 20 | PAP, absolute values for each animal ([2]; 100 μg/kg nominal dose inhaled 24 h before hypoxia, time 30 min): 24 | efficacy (PAP decrease), head to head ([2]; 100 μg/kg nominal dose inhaled, up to 6 hrs after inhalation): comparable efficacy | mPAP decrease during Hypoxia, each animal [2, 3]: −12.44 mmHg and −11.44 mmHg and −10.13 mmHg | mPAP decrease during Hypoxia, mean +/− SEM [2, 3]: −11.33 ± 0.67 mmHg | mPAP decrease during Hypoxia, each animal [2, 4]: −16.13 mmHg and −5.44 mmHg and −8.75 mmHg | mPAP decrease during Hypoxia, mean +/− SEM [2, 4]: −10.10 ± 3.16 mmHg | mPAP decrease during Hypoxia, each animal [2, 5]: −3.44 mmHg and −4.81 mmHg and −1.69 mmHg | mPAP decrease during Hypoxia, mean +/− SEM [2, 5]: −3.31 ± 0.90 mmHg | mPAP decrease during Hypoxia, each animal [2, 6]: −2.25 mmHg and −4.25 mmHg and −3.00 mmHg | mPAP decrease during Hypoxia, mean +/− SEM [2, 6]: −3.17 ± 0.58 mmHg | mPAP decrease during Hypoxia, each animal [2, 7]: −0.13 mmHg and −1.94 mmHg and −0.50 mmHg | mPAP decrease during Hypoxia, mean +/− SEM [2, 7]: −0.85 ± 0.55 mmHg | PAP decrease, head to head ([2]; 100 μg/kg nominal dose, 12 and 16 hrs after inhalation): more effective PAP decrease for comparative example 11 compared to comparative example 4
